According to BindingDB's records for doi:10.1021/acschembio.6b00555 (University of Nebraska-Lincoln, 2016):

Key:
Assay in all cases: Fluorescence Polarization Assay
Conditions in all cases: pH 7.35
[1] = target: T1, Tyrosine-protein kinase transforming protein Src [144-247,T181V,C186A,K201L] (Rous sarcoma virus subgroup B (strain Schmidt-Ruppin), UniProt P63185, C186A/K201L/T181V)
T1 construct: 144-247
Description: (§1) Three fluorescein-labeled peptide probes, FITC-sulfopeptide, FITC-phosphopeptide, and FITC-tyrosinepeptide (FITC, fluorescein isothiocyanate), were used. Individual peptide probes were dissolved in assay buffer containing potassium phosphate (20 mM, pH 7.35), NaCl (100 mM), DTT (2 mM), and bovine gamma globulin (0.1%). Aliquots of the peptide probe solution were distributed to 96-well fluorescence plate to reach a final concentration of 10 nM. After the addition of indicated amounts of SH2 domain protein, the assay solutions were mixed and incubated at RT in the dark for 25 min. Fluorescence polarization experimentswere performed on a Synergy H1 plate reader (BioTek Instruments, Inc.) equipped with standard filter cube (λEx = 485 nm, BP = 20 nm; λEm = 528 nm, BP = 20 nm). A standard sample layout in a 96-well plate was designed so that a single plate contains all the samples for one SH2 domain variant. Triplicate samples at each protein concentration were arrayed in the plat

[2] = target: T2, Tyrosine-protein kinase transforming protein Src [144-247,E177R,S178L,E179Q,T180R,T181V,C186A,K201L] (Rous sarcoma virus subgroup B (strain Schmidt-Ruppin), UniProt P63185, C186A/E177R/E179Q/K201L/S178L/T180R/T181V)
T2 construct: 144-247
T2 sequence (P63185 144-247 E176R/S177L/E178Q/T179R/T180V/C185A/K200L): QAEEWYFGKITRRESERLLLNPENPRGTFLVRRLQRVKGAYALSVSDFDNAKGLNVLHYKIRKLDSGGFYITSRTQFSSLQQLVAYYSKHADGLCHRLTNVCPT
Description: as §1

[3] = target: T3, Tyrosine-protein kinase transforming protein Src [144-247] (Rous sarcoma virus subgroup B (strain Schmidt-Ruppin), UniProt P00524)
T3 construct: 144-247
T3 sequence (P00524 144-247): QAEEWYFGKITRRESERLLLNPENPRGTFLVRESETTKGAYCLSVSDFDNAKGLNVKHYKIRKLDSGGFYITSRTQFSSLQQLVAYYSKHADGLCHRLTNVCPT
Description: as §1

[4] = target: T4, Tyrosine-protein kinase transforming protein Src [144-247,E177Q,S178L,E179A,T180R,T181V,C186A,K201L] (Rous sarcoma virus subgroup B (strain Schmidt-Ruppin), UniProt P63185, C186A/E177Q/E179A/K201L/S178L/T180R/T181V)
T4 construct: 144-247
T4 sequence (P63185 144-247 E176Q/S177L/E178A/T179R/T180V/C185A/K200L): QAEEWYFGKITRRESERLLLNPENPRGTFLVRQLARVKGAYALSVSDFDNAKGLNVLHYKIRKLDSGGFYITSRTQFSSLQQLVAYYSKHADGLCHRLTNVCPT
Description: as §1

T1 sequence (P63185 144-247 T180V/C185A/K200L): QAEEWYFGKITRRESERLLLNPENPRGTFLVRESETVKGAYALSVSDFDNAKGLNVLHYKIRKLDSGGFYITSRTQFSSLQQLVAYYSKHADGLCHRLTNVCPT

N[C@@H](Cc1ccc(OP(=O)(O)O)cc1)C(=O)O [Phosphotyrosine (pTyr)]
Kd [1]: 4.9 nM | Kd [2]: 2.5 nM | Kd [3]: 61 nM | Kd [4]: 7.7 nM

N[C@@H](Cc1ccc(OS(=O)(=O)O)cc1)C(=O)O [Sulfotyrosine (sTyr)]
Kd [1]: 349 nM | Kd [2]: 5.6 nM | Kd [3]: 9620 nM | Kd [4]: 10.4 nM
